In patent US8618085B2, “Therapeutic formulations of desoxyepothilones” (Koasn Biosciences Incorporated, priority 2000, dated 2013):

Assay: Dilution stability of epothilone D formulations, visual appearance
Assay type: physicochemical
Parameters: key: remained clear; ppt: precipitation; xtal: crystallization
Settings: for Visual Appearance RODI Dilution 0 h / Visual Appearance RODI Dilution 12 h / Visual Appearance RODI Dilution 24 h / Visual Appearance RODI Dilution 36 h / Visual Appearance RODI Dilution 48 h: 1:10 into RODI water; for Visual Appearance Initial: undiluted
Description: The dilution stability of epothilone D formulations at 8-20 mg/mL in various formulations was examined. A stock solution of epothilone D (100 mg/mL) was prepared in ethanol. Epothilone D formulations were prepared as listed in the following tables by addition of the requisite amount of ethanol, PEG400, 10% Tween® 80, and either propylene glycol or glycerol to the appropriate volume of the epothilone D stock solution. The solubility of epothilone D in each vial was observed visually following gentle swirling. Each formulation was syringe filtered through a 0.2 micron PVDF filter. Each formulation was subsequently diluted 1:8, 1:10, or 1:12 in reverse osmosis deionized water (RODI) or 0.9% saline. Visual observations were taken upon preparation, upon dilution, and both 1 and 24 hours after incubation at ambient temperature.
The dilution stability up to 48 hours post-dilution was examined for the above formulations containg 8-11 mg/mL of epothilone D after 1:10 dilution into either RODI water or 0.45% saline, as summarized in Tables 12 and 13 below.

[1] = 8 mg/mL epo D in 10% Tween 80, 50% ethanol, 30% PEG400, 10% propylene glycol
[2] = 8 mg/mL epo D in 10% Tween 80, 50% ethanol, 30% PEG400, 10% propylene glycol, 0.9% saline
[3] = 8 mg/mL epo D in 10% Tween 80, 50% ethanol, 30% PEG400, 10% propylene glycol, 1:10 into 0.45% saline
[4] = 8 mg/mL epo D in 10% Tween 80, 60% ethanol, 20% PEG400, 10% glycerol
[5] = 8 mg/mL epo D in 10% Tween 80, 60% ethanol, 20% PEG400, 10% glycerol, 0.9% saline
[6] = 8 mg/mL epo D in 10% Tween 80, 60% ethanol, 20% PEG400, 10% glycerol, 1:10 into 0.45% saline
[7] = 9 mg/mL epo D in 10% Tween 80, 50% ethanol, 30% PEG400, 10% propylene glycol, 1:10 into 0.45% saline
[8] = 9 mg/mL epo D in 10% Tween 80, 50% ethanol, 30% PEG400, 10% propylene glycol
[9] = 9 mg/mL epo D in 10% Tween 80, 60% ethanol, 20% PEG400, 10% glycerol, 1:10 into 0.45% saline
[10] = 9 mg/mL epo D in 10% Tween 80, 60% ethanol, 20% PEG400, 10% glycerol
[11] = 10 mg/mL epo D in 10% Tween 80, 50% ethanol, 30% PEG400, 10% propylene glycol
[12] = 10 mg/mL epo D in 10% Tween 80, 50% ethanol, 30% PEG400, 10% propylene glycol, 0.9% saline
[13] = 10 mg/mL epo D in 10% Tween 80, 50% ethanol, 30% PEG400, 10% propylene glycol, 1:10 into 0.45% saline
[14] = 10 mg/mL epo D in 10% Tween 80, 60% ethanol, 20% PEG400, 10% glycerol
[15] = 10 mg/mL epo D in 10% Tween 80, 60% ethanol, 20% PEG400, 10% glycerol, 0.9% saline
[16] = 10 mg/mL epo D in 10% Tween 80, 60% ethanol, 20% PEG400, 10% glycerol, 1:10 into 0.45% saline
[17] = 11 mg/mL epo D in 10% Tween 80, 50% ethanol, 30% PEG400, 10% propylene glycol, 1:10 into 0.45% saline
[18] = 11 mg/mL epo D in 10% Tween 80, 50% ethanol, 30% PEG400, 10% propylene glycol
[19] = 11 mg/mL epo D in 10% Tween 80, 60% ethanol, 20% PEG400, 10% glycerol, 1:10 into 0.45% saline
[20] = 11 mg/mL epo D in 10% Tween 80, 60% ethanol, 20% PEG400, 10% glycerol
[21] = 12 mg/mL epo D in 10% Tween 80, 50% ethanol, 30% PEG400, 10% propylene glycol
[22] = 12 mg/mL epo D in 10% Tween 80, 50% ethanol, 30% PEG400, 10% propylene glycol, 0.9% saline
[23] = 12 mg/mL epo D in 10% Tween 80, 60% ethanol, 20% PEG400, 10% glycerol
[24] = 12 mg/mL epo D in 10% Tween 80, 60% ethanol, 20% PEG400, 10% glycerol, 0.9% saline
[25] = 16 mg/mL epo D in 10% Tween 80, 50% ethanol, 30% PEG400, 10% propylene glycol
[26] = 16 mg/mL epo D in 10% Tween 80, 50% ethanol, 30% PEG400, 10% propylene glycol, 0.9% saline
[27] = 16 mg/mL epo D in 10% Tween 80, 60% ethanol, 20% PEG400, 10% glycerol
[28] = 16 mg/mL epo D in 10% Tween 80, 60% ethanol, 20% PEG400, 10% glycerol, 0.9% saline
[29] = 20 mg/mL epo D in 10% Tween 80, 50% ethanol, 30% PEG400, 10% propylene glycol
[30] = 20 mg/mL epo D in 10% Tween 80, 50% ethanol, 30% PEG400, 10% propylene glycol, 0.9% saline
[31] = 20 mg/mL epo D in 10% Tween 80, 60% ethanol, 20% PEG400, 10% glycerol
[32] = 20 mg/mL epo D in 10% Tween 80, 60% ethanol, 20% PEG400, 10% glycerol, 0.9% saline
[33] = Table 12: 10 mg/mL epo D in 10% Tween 80, 60% ethanol, 20% PEG400, 10% glycerol
[34] = Table 13: 10 mg/mL epo D in 10% Tween 80, 50% ethanol, 30% PEG400, 10% propylene glycol

C/C1=C/CC(/C(C)=C/c2csc(C)n2)OC(=O)C[C@H](O)C(C)(C)C(=O)[C@H](C)[C@@H](O)[C@@H](C)CCC1 (some centres unmarked) [Epothilone D, Desoxyepothilone B]
ppt: Visual Appearance RODI Dilution 1:08 0 h [25] | Visual Appearance RODI Dilution 1:10 0 h [25] | Visual Appearance RODI Dilution 1:12 0 h [25] | Visual Appearance Saline Dilution 1:08 1 h [26] | Visual Appearance Saline Dilution 1:10 1 h [26] | Visual Appearance Saline Dilution 1:12 1 h [26] | Visual Appearance RODI Dilution 1:08 0 h [27] | Visual Appearance RODI Dilution 1:10 0 h [27] | Visual Appearance RODI Dilution 1:12 0 h [27] | Visual Appearance Saline Dilution 1:08 1 h [28] | Visual Appearance Saline Dilution 1:10 1 h [28] | Visual Appearance Saline Dilution 1:12 1 h [28] | Visual Appearance RODI Dilution 1:08 0 h [29] | Visual Appearance RODI Dilution 1:10 0 h [29] | Visual Appearance RODI Dilution 1:12 0 h [29] | Visual Appearance Saline Dilution 1:08 1 h [30] | Visual Appearance Saline Dilution 1:10 1 h [30] | Visual Appearance Saline Dilution 1:12 1 h [30] | Visual Appearance RODI Dilution 1:08 0 h [31] | Visual Appearance RODI Dilution 1:10 0 h [31] | Visual Appearance RODI Dilution 1:12 0 h [31] | Visual Appearance Saline Dilution 1:08 1 h [32] | Visual Appearance Saline Dilution 1:10 1 h [32] | Visual Appearance Saline Dilution 1:12 1 h [32]
xtal: Visual Appearance Saline Dilution 1:08 1 h [2] | Visual Appearance Saline Dilution 1:10 1 h [2] | Visual Appearance Saline Dilution 1:12 24 h [2] | Visual Appearance Saline Dilution 12 h [3] | Visual Appearance Saline Dilution 1:08 24 h [5] | Visual Appearance Saline Dilution 1:10 1 h [5] | Visual Appearance Saline Dilution 1:12 1 h [5] | Visual Appearance Saline Dilution 12 h [6] | Visual Appearance RODI Dilution 36 h [4] | Visual Appearance Saline Dilution 12 h [7] | Visual Appearance Saline Dilution 12 h [9] | Visual Appearance RODI Dilution 36 h [10] | Visual Appearance Saline Dilution 1:08 1 h [12] | Visual Appearance Saline Dilution 1:10 1 h [12] | Visual Appearance Saline Dilution 1:12 1 h [12] | Visual Appearance Saline Dilution 36 h [13] | Visual Appearance Saline Dilution 1:08 24 h [15] | Visual Appearance Saline Dilution 1:10 1 h [15] | Visual Appearance Saline Dilution 1:12 1 h [15] | Visual Appearance Saline Dilution 12 h [16] | Visual Appearance Saline Dilution 12 h [17] | Visual Appearance RODI Dilution 12 h [18] | Visual Appearance Saline Dilution 12 h [19] | Visual Appearance RODI Dilution 12 h [20] | Visual Appearance RODI Dilution 1:12 24 h [21] | Visual Appearance Saline Dilution 1:08 1 h [22] | Visual Appearance Saline Dilution 1:10 1 h [22] | Visual Appearance Saline Dilution 1:12 1 h [22] | Visual Appearance RODI Dilution 1:12 24 h [23] | Visual Appearance Saline Dilution 1:08 1 h [24] | Visual Appearance Saline Dilution 1:10 1 h [24] | Visual Appearance Saline Dilution 1:12 1 h [24] | Visual Appearance RODI Dilution 48 h [33]
clear: Visual Appearance RODI Dilution 1:08 0 h [1] | Visual Appearance RODI Dilution 1:08 24 h [1] | Visual Appearance RODI Dilution 1:10 0 h [1] | Visual Appearance RODI Dilution 1:10 24 h [1] | Visual Appearance RODI Dilution 1:12 0 h [1] | Visual Appearance RODI Dilution 1:12 24 h [1] | Visual Appearance Saline Dilution 1:12 1 h [2] | Visual Appearance Saline Dilution 0 h [3] | Visual Appearance RODI Dilution 0 h [1] | Visual Appearance RODI Dilution 12 h [1] | Visual Appearance RODI Dilution 24 h [1] | Visual Appearance RODI Dilution 36 h [1] | Visual Appearance RODI Dilution 48 h [1] | Visual Appearance Initial [1] | Visual Appearance RODI Dilution 1:08 0 h [4] | Visual Appearance RODI Dilution 1:08 24 h [4] | Visual Appearance RODI Dilution 1:10 0 h [4] | Visual Appearance RODI Dilution 1:10 24 h [4] | Visual Appearance RODI Dilution 1:12 0 h [4] | Visual Appearance RODI Dilution 1:12 24 h [4] | Visual Appearance Saline Dilution 1:08 1 h [5] | Visual Appearance Saline Dilution 0 h [6] | Visual Appearance RODI Dilution 0 h [4] | Visual Appearance RODI Dilution 12 h [4] | Visual Appearance RODI Dilution 24 h [4] | Visual Appearance Initial [4] | Visual Appearance Saline Dilution 0 h [7] | Visual Appearance RODI Dilution 0 h [8] | Visual Appearance RODI Dilution 12 h [8] | Visual Appearance RODI Dilution 24 h [8] | Visual Appearance RODI Dilution 36 h [8] | Visual Appearance RODI Dilution 48 h [8] | Visual Appearance Saline Dilution 0 h [9] | Visual Appearance RODI Dilution 0 h [10] | Visual Appearance RODI Dilution 12 h [10] | Visual Appearance RODI Dilution 24 h [10] | Visual Appearance RODI Dilution 1:08 0 h [11] | Visual Appearance RODI Dilution 1:08 24 h [11] | Visual Appearance RODI Dilution 1:10 0 h [11] | Visual Appearance RODI Dilution 1:10 24 h [11] | Visual Appearance RODI Dilution 1:12 0 h [11] | Visual Appearance RODI Dilution 1:12 24 h [11] | Visual Appearance Saline Dilution 0 h [13] | Visual Appearance Saline Dilution 12 h [13] | Visual Appearance Saline Dilution 24 h [13] | Visual Appearance Initial [11] | Visual Appearance RODI Dilution 1:08 0 h [14] | Visual Appearance RODI Dilution 1:08 24 h [14] | Visual Appearance RODI Dilution 1:10 0 h [14] | Visual Appearance RODI Dilution 1:10 24 h [14] | Visual Appearance RODI Dilution 1:12 0 h [14] | Visual Appearance RODI Dilution 1:12 24 h [14] | Visual Appearance Saline Dilution 1:08 1 h [15] | Visual Appearance Saline Dilution 0 h [16] | Visual Appearance Initial [14] | Visual Appearance Saline Dilution 0 h [17] | Visual Appearance RODI Dilution 0 h [18] | Visual Appearance Initial [18] | Visual Appearance Saline Dilution 0 h [19] | Visual Appearance RODI Dilution 0 h [20] | Visual Appearance Initial [20] | Visual Appearance RODI Dilution 1:08 0 h [21] | Visual Appearance RODI Dilution 1:08 24 h [21] | Visual Appearance RODI Dilution 1:10 0 h [21] | Visual Appearance RODI Dilution 1:10 24 h [21] | Visual Appearance RODI Dilution 1:12 0 h [21] | Visual Appearance Initial [21] | Visual Appearance RODI Dilution 1:08 0 h [23] | Visual Appearance RODI Dilution 1:08 24 h [23] | Visual Appearance RODI Dilution 1:10 0 h [23] | Visual Appearance RODI Dilution 1:10 24 h [23] | Visual Appearance RODI Dilution 1:12 0 h [23] | Visual Appearance Initial [23] | Visual Appearance Initial [25] | Visual Appearance Initial [27] | Visual Appearance Initial [29] | Visual Appearance Initial [31] | Visual Appearance Initial (Table 12: 8 mg/mL epo D in 10% Tween 80, 60% ethanol, 20% PEG400, 10% glycerol) | Visual Appearance Initial (Table 12: 9 mg/mL epo D in 10% Tween 80, 60% ethanol, 20% PEG400, 10% glycerol) | Visual Appearance RODI Dilution 0 h [33] | Visual Appearance RODI Dilution 12 h [33] | Visual Appearance RODI Dilution 24 h [33] | Visual Appearance RODI Dilution 36 h [33] | Visual Appearance Initial [33] | Visual Appearance Initial (Table 13: 8 mg/mL epo D in 10% Tween 80, 50% ethanol, 30% PEG400, 10% propylene glycol) | Visual Appearance Initial (Table 13: 9 mg/mL epo D in 10% Tween 80, 50% ethanol, 30% PEG400, 10% propylene glycol) | Visual Appearance RODI Dilution 0 h [34] | Visual Appearance RODI Dilution 12 h [34] | Visual Appearance RODI Dilution 24 h [34] | Visual Appearance RODI Dilution 36 h [34] | Visual Appearance RODI Dilution 48 h [34] | Visual Appearance Initial [34]
